Experimental data as given in PubChem BioAssay (NCI).
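Protocol summary: plate cells (96-well), add compound at 5 concentrations, incubate 48 h, interpolate endpoints linearly. Definition used: TGI = concentration required for complete inhibition of growth.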

Experiments:
Experiment in all cases: growth of human tumour cells (NCI), 48 h
A549 NSCLC = system: A549 NSCLC
HCC-2998 colon = system: HCC-2998 colon
U251 CNS = system: U251 CNS
NCI-H522 lung = system: NCI-H522 lung
EKVX NSCLC = system: EKVX NSCLC
RXF 393 renal = system: RXF 393 renal
MDA-N = system: MDA-N
HOP-92 NSCLC = system: HOP-92 NSCLC
M14 melanoma = system: M14 melanoma
SK-MEL-2 melanoma = system: SK-MEL-2 melanoma
SN12C renal = system: SN12C renal
SK-MEL-5 melanoma = system: SK-MEL-5 melanoma
SR leukemia = system: SR leukemia
CAKI-1 renal = system: CAKI-1 renal
MCF7 breast = system: MCF7 breast
NCI-H460 lung = system: NCI-H460 lung
HOP-62 NSCLC = system: HOP-62 NSCLC
MDA-MB-435 = system: MDA-MB-435
T-47D breast = system: T-47D breast
A498 renal = system: A498 renal

Row | SMILES | TGI (A549 NSCLC) [µM] | TGI (HCC-2998 colon) [µM] | TGI (U251 CNS) [µM] | TGI (NCI-H522 lung) [µM] | TGI (EKVX NSCLC) [µM] | TGI (RXF 393 renal) [µM] | TGI (MDA-N) [µM] | TGI (HOP-92 NSCLC) [µM] | TGI (M14 melanoma) [µM] | TGI (SK-MEL-2 melanoma) [µM] | TGI (SN12C renal) [µM] | TGI (SK-MEL-5 melanoma) [µM] | TGI (SR leukemia) [µM] | TGI (CAKI-1 renal) [µM] | TGI (MCF7 breast) [µM] | TGI (NCI-H460 lung) [µM] | TGI (HOP-62 NSCLC) [µM] | TGI (MDA-MB-435) [µM] | TGI (T-47D breast) [µM] | TGI (A498 renal) [µM]
1 | NC(N)=NS(=O)(=O)c1ccc(NNc2c3ccccc3nc3ccccc23)cc1 | 45.4 | 27.3 | 24.2 | 17.5 | 34.3 | 36 | 28.4 | 31.5 | 26.8 | 37.1 | 35.6 | 22.3 | 13.7 | 55.1 | 16.8 | 23.4 | 40.1 | 33.9 | 41.9 | 
2 | C=C(CCOC)CCC1CCCCC(CN(C)C)C1=O (stereo unspecified) | > 100 | > 100 | > 100 | > 100 | > 100 | > 100 | > 100 |  | > 100 | > 100 | > 100 | > 100 | > 100 | > 100 | > 100 | > 100 | > 100 | > 100 | > 100 | > 100
3 | N#Cc1ccc(-c2nc3c(N)ncnc3o2)cc1 | > 100 | > 100 |  | > 100 | > 100 | > 100 | > 100 |  | > 100 | > 100 | > 100 | > 100 | > 100 | > 100 | > 100 | > 100 | > 100 | > 100 | > 100 | > 100
4 | C=CC[C@]1(/C=N/O)CN(S(=O)(=O)CC[Si](C)(C)C)C[C@H]2CC=CC[C@H]21 | 30.7 | 31.9 | 32.2 | 38 | 58.5 | 29.6 | 42.8 |  | 45 | 32.6 | 30 | > 100 |  | 42.8 | 39.6 | 38.5 | 39 | > 100 | > 100 | 31.8
5 | COc1cc2c(cc1OCCCCCCCCCCN1C(=O)c3cccc4cccc(c34)C1=O)N=C[C@@H]1CCCN1C2=O | 82.4 | 27.5 | 13.4 | 28.9 | 14.4 | 10.1 | 30 |  | 54.6 | 20.3 | 18.3 | 22.8 | 3.84 | 28.9 | 9.26 | 78 | > 100 | 18.8 | > 100 | 
6 | Nc1ccccc1CCN1CCN(CCCc2ccccc2)CC1 | > 100 | 39 | > 100 | > 100 | > 100 |  | > 100 |  | 35.4 | > 100 | > 100 | 32.6 | > 100 | > 100 | > 100 | > 100 | > 100 | > 100 | 53.3 | > 100
7 | CCOC(=O)CCC(NC(=O)c1ccc(Nc2nc3ccc(C(F)(F)F)cc3nc2-c2ccccc2)cc1)C(=O)OCC (stereo unspecified) | > 100 | > 85.9 | > 100 | 55.2 | > 100 | > 100 | 75.4 | > 100 | 46.2 | 49.7 | > 100 | > 100 | > 100 | > 100 | > 100 | > 100 | > 100 | > 100 | 60.4 | 
8 | O=C(NC1=C(Cl)C(=O)c2ccccc2C1=O)c1ccccc1 | > 100 | > 100 | 81.1 | 52.3 | > 100 | 34 | 28.1 | 39.9 | > 100 |  | > 100 | 78.9 | > 100 |  | 39.2 | > 100 | > 100 | 47.6 | 47.4 | 
9 | COC(=O)C1Cc2cc3c(cc2C1=O)CCC3 (stereo unspecified) | > 100 | > 100 | > 100 | > 100 | > 100 |  | > 100 |  | > 100 | > 100 | > 100 | > 100 | > 100 | > 100 | > 100 | > 100 | > 100 | > 100 | > 100 | > 100
10 | Cc1c(N2C(=O)C(Cl)C2/C=C/c2ccccc2)c(=O)n(-c2ccccc2)n1C (stereo unspecified) | 86.9 |  | 21.1 | 34.5 | 34.4 | 79.3 | 40 | 50.2 | 36 | 40.6 | 47 | 30 | 43.9 | > 100 | 87.5 | > 100 | 60.9 | 28.1 | > 100 | 
11 | C[C@@H](C(=O)O)N1C(c2ccco2)=C(/C(C=O)=C\c2ccco2)C(=O)/C1=C\c1ccco1 | > 100 |  | > 100 | > 100 | > 100 | > 100 | > 100 | > 100 | > 100 | > 100 | > 100 | > 100 |  | > 100 | > 100 |  | > 100 | > 100 | > 100 | > 100
12 | COc1ccc2nc(N/N=C/c3sccc3C)cc(C)c2c1 | 56.9 | 41.2 | 73.5 |  | 55.4 | 62.6 | 39.4 | 26.4 | 25.3 | 63.1 | 48.2 | 25.5 |  | > 100 | 55.5 | 28.2 | 36.3 | 43.9 | > 100 | 26.9
13 | COc1ccc(Cn2c3c(cc(OC(C)=O)c2=O)Cc2ccccc2-3)cc1 | > 50 | 9.96 | 26.3 | 15.1 | 28.3 | 42.6 | > 50 | 34.1 | 17.9 | 23.9 | 20.8 | 41.6 | 28 | 35.7 | > 50 | 15 | > 50 | > 50 | > 50 | 
